In patent US5036059A, “1,4-Dihydropyridine-3-carboxylate derivatives” (Nippon Shinyaku Company, Limited, priority 1984, dated 1991) one finds activation and inhibition in vivo data, which are given here for 19 compounds.

In one test the test system is guinea pig heart. Briefly: Coronary vasodilating action, constant pressure perfusion of isolated guinea pig heart (Langendorff). Conditions: Cavia porcellus, via coronary artery, read-out: Perfusion Increasing Rate; for activation at 0.001 mg: 10^-6 gram/heart; for activation at 0.0001 mg: 10^-7 gram/heart. How it is done: Constant pressure perfusion samples of guinea pig heart isolated by a method according to Langendorff were treated with the present invention compounds by administration via coronary artery and the effect was examined (Table 1).
With reference to coronary vasodilating action of diltiazem measured by the same method, the increasing rates in perfusion by administration of 10^-7, 10^-6 and 10^-5 gram/heart were 4, 16 and 55%, respectively.

Test [1] concerns rats (with normal blood pressure). Briefly: Hypotensive action, mean blood pressure of femoral artery in unanesthetized normotensive rats, oral. Conditions: Rattus norvegicus, read-out: % Decreases in Mean Blood Pressure [at peak effect]; for inhibition in vivo at 1 mg/kg: 1 mg/kg oral; for inhibition in vivo at 3 mg/kg: 3 mg/kg oral; for inhibition in vivo at 10 mg/kg: 10 mg/kg oral. In kind it is in vivo. As to the method:
Blood pressure of femoral artery of rats (with normal blood pressure) under unanesthetized condition was measured directly using a pressure tranducer.
The present invention compounds were given orally at doses of 1, 3 and 10 mg/kg, and changes in blood pressure were continuously recorded. Percent decreases of mean blood pressure at the peak effect were calculated. The maximum changes in mean blood pressure (%) were shown as "hypotensive action" (Table 2).
Hypotensive action of diltiazem (which is a known hypotensive drug) measured by the same method at the doses of 3, 10 and 30 mg/kg were 0, 11.2 and 33.0%, respectively. Hypotensive action of the compound of Example 4 which is one of the most representative compounds of this invention was tested using spontaneously hypertensive rats and was compared with those of Nifedipine and Diltiazem hydrochloride. The method applied was that the drugs were orally given to the rats of which systolic arterial blood pressure were higher than 180 mmHg when it was measured plethysmographically using tail arteries. (Table 3)

Take `CC1=C(C(=O)OC2CCN(Cc3ccccc3)CC2)C(c2cccc([N+](=O)[O-])c2)C(P2(=O)OCCCO2)=C(C)N1` (centres unmarked) [Example 3, N-Benzyl-4-piperidinyl 2,6-dimethyl-4-(3-nitrophenyl)-5-(2-oxo-1,3,2-dioxaphosphorinan-2-yl)-1,4-dihydropyridine-3-carboxylate]: in the test on guinea pig heart, the activation at 0.001 mg was found to be 18% and the activation at 0.0001 mg turned out to be 10%. Moreover, in test [1], the inhibition in vivo at 1 mg/kg came out at 8.2%, the inhibition in vivo at 3 mg/kg came to 11.1% and the inhibition in vivo at 10 mg/kg was determined as 20.9%.

For `CCOC(=O)C1=C(C)NC(C)=C(P2(=O)OCC(C)(C)CO2)C1c1cccc([N+](=O)[O-])c1` (centres unmarked) [Example 8, Ethyl 2,6-dimethyl-5-(5,5-dimethyl-2-oxo-1,3,2-dioxaphosphorinan-2-yl)-4-(3-nitrophenyl-1)-1,4-dihydropyridine-3-carboxylate], in the test with guinea pig heart, the activation at 0.001 mg came to 33% and the activation at 0.0001 mg was 11%. Moreover, in test [1], the inhibition in vivo at 1 mg/kg is 8.1%, the inhibition in vivo at 3 mg/kg was determined as 15.5% and the inhibition in vivo at 10 mg/kg amounted to 37.1%.

Take `CC1=C(C(=O)OCCN(C)Cc2ccccc2)C(c2cccc([N+](=O)[O-])c2)C(P2(=O)OC(C)CC(C)O2)=C(C)N1` (centres unmarked) [Example 17, 2-(N-Benzyl-N-methylamino)-ethyl 2,6-dimethyl-5-(4,6-dimethyl-2-oxo-1,3,2-dioxaphosphorinan-2-yl)-4-(3-nitrophenyl)-1,4-dihydropyridine-3-carboxylate]: in the test with guinea pig heart, the activation at 0.001 mg amounted to 23% and the activation at 0.0001 mg was determined as 10%. Moreover, in test [1], the inhibition in vivo at 1 mg/kg was determined as 24.8%, the inhibition in vivo at 3 mg/kg turned out to be 36.8% and the inhibition in vivo at 10 mg/kg is 47%.

As for `CCC1(CC)COP(=O)(C2=C(C)NC(C)=C(C(=O)OCCN(C)Cc3ccccc3)C2c2cccc([N+](=O)[O-])c2)OC1` (centres unmarked) [Example 22, 2-(N-Benzyl-N-methylamino)-ethyl 5-(5,5-diethyl-2-oxo-1,3,2-dioxaphosphorinan-2-yl)-2,6-dimethyl-4-(3-nitrophenyl)-1,4-dihydropyridine-3-carboxylate], in the test on guinea pig heart, the activation at 0.001 mg was 31% and the activation at 0.0001 mg is 21%. Also, in test [1], the inhibition in vivo at 1 mg/kg was determined as 7.3%, the inhibition in vivo at 3 mg/kg stood at 10.4% and the inhibition in vivo at 10 mg/kg came to 18.4%.

Turning to `CCC1COP(=O)(C2=C(C)NC(C)=C(C(=O)OCCN(C)Cc3ccccc3)C2c2cccc([N+](=O)[O-])c2)OC1` (centres unmarked) [Example 29, 2-(N-Benzyl-N-methylamino)-ethyl 5-(5-ethyl-2-oxo-1,3,2-dioxaphosphorinan-2-yl)-2,6-dimethyl-4-(3-nitrophenyl)-1,4-dihydropyridine-3-carboxylate], in the test on guinea pig heart, the activation at 0.001 mg turned out to be 59% and the activation at 0.0001 mg came to 34%.

For the compound `CCC1COP(=O)(C2=C(C)NC(C)=C(C(=O)OC)C2c2ccccc2[N+](=O)[O-])OC1` (centres unmarked) [Example 30, Methyl 5-(5-ethyl-2-oxo-1,3,2-dioxaphosphorinan-2-yl)-2,6-dimethyl-4-(2-nitrophenyl)-1,4-dihydropyridine-3-carboxylate], in the test on guinea pig heart, the activation at 0.001 mg was found to be 26% and the activation at 0.0001 mg was 13%.

Turning to `CCOC(=O)C1=C(C)NC(C)=C(P2(=O)OCC(C(C)C)CO2)C1c1cccc([N+](=O)[O-])c1` (centres unmarked) [Example 32, Ethyl 2,6-dimethyl-4-(3-nitrophenyl)-5-(5-isopropyl-2-oxo-1,3,2-dioxaphosphorinan-2-yl)-1,4-dihydropyridine-3-carboxylate], in the test with guinea pig heart, the activation at 0.001 mg came out at 77% and the activation at 0.0001 mg was 24%. Further, in test [1], the inhibition in vivo at 1 mg/kg was 7.8%, the inhibition in vivo at 3 mg/kg amounted to 21.2% and the inhibition in vivo at 10 mg/kg amounted to 30.5%.

As to `COC(=O)C1=C(C)NC(C)=C(P2(=O)OCC(C(C)C)CO2)C1c1ccccc1[N+](=O)[O-]` (centres unmarked) [Example 34, Methyl 2,6-dimethyl-5-(5-isopropyl-2-oxo-1,3,2-dioxaphosphorinan-2-yl)-4-(2-nitrophenyl)-1,4-dihydropyridine-3-carboxylate], in the test on guinea pig heart, the activation at 0.001 mg was found to be 38% and the activation at 0.0001 mg turned out to be 13%.

In the case of `CC1=C(C(=O)OCCN(C)Cc2ccccc2)C(c2cccc([N+](=O)[O-])c2)C(P2(=O)OCC3(CCC3)CO2)=C(C)N1` (centres unmarked) [Example 37, 2-(N-Benzyl-N-methylamino)-ethyl-2,6-dimethyl-4-(3-nitrophenyl)-5-(7-oxo-6,8-dioxa-7-phosphaspiro(3,5)nonan-7-yl)-1,4-dihydropyridine-3-carboxylate], in the test on guinea pig heart, the activation at 0.001 mg was found to be 26% and the activation at 0.0001 mg was found to be 22%.

Take `CCOC(=O)C1=C(C)NC(C)=C(P2(=O)OCC3(CCC3)CO2)C1c1ccccc1[N+](=O)[O-]` (centres unmarked) [Example 39, Ethyl 2,6-dimethyl-4-(2-nitrophenyl)-5-(7-oxo-6,8-dioxa-7-phosphaspiro(3,5)nonan-7-yl)-1,4-dihydropyridine-3-carboxylate]: in the test on guinea pig heart, the activation at 0.001 mg worked out at 31% and the activation at 0.0001 mg turned out to be 12%.

On to `COC(=O)C1=C(C)NC(C)=C(P2(=O)OCC3(CCCCC3)CO2)C1c1cccc([N+](=O)[O-])c1` (centres unmarked) [Example 40, Methyl 2,6-dimethyl-4-(3-nitrophenyl)-5-(3-oxo-2,4-dioxa-3-phosphoaspiro(5,5)undecan-3-yl)-1,4-dihydropyridine-3-carboxylate], for which, in the test with guinea pig heart, the activation at 0.001 mg is 82% and the activation at 0.0001 mg turned out to be 29%.

With `CCOC(=O)C1=C(C)NC(C)=C(P2(=O)OCC3(CCCCC3)CO2)C1c1ccccc1[N+](=O)[O-]` (centres unmarked) [Example 43, Ethyl 2,6-dimethyl-4-(2-nitrophenyl)-5-(3-oxo-2,4-dioxa-3-phosphaspiro(5,5)undecan-3-yl)-1,4-dihydropyridine-3-carboxylate], in the test with guinea pig heart, the activation at 0.001 mg turned out to be 56% and the activation at 0.0001 mg stood at 12%.

As to `CCOC(=O)C1(C(=O)OCC)COP(=O)(C2=C(C)NC(C)=C(C(=O)OCCN(C)Cc3ccccc3)C2c2cccc([N+](=O)[O-])c2)OC1` (centres unmarked) [Example 45, 2-(N-Benzyl-N-methylamino)-ethyl 5-(5,5-diethoxycarbonyl-2-oxo-1,3,2-dioxaphosphorinan-2-yl)-2,6-dimethyl-4-(3-nitrophenyl)-1,4-dihydropyridine-3-carboxylate], in the test on guinea pig heart, the activation at 0.001 mg turned out to be 29% and the activation at 0.0001 mg was 10%.

For `CCOC(=O)C1(C(=O)OCC)COP(=O)(C2=C(C)NC(C)=C(C(=O)OC)C2c2ccccc2[N+](=O)[O-])OC1` (centres unmarked) [Example 46, Methyl 5-(5,5-diethoxycarbonyl-2-oxo-1,3,2-dioxaphosphorinan-2-yl)-2,6-dimethyl-4-(2-nitrophenyl)-1,4-dihydropyridine-3-carboxylate], in the test on guinea pig heart, the activation at 0.001 mg was 19% and the activation at 0.0001 mg is 12%.

As for `CC1=C(C(=O)OCCN(C)Cc2ccccc2)C(c2cccc([N+](=O)[O-])c2)C(P2(=O)OC(C)(C)C(C)(C)O2)=C(C)N1` (centres unmarked) [Example 48, 2-(N-Benzyl-N-methylamino)-ethyl 2,6-dimethyl-4-(3-nitrophenyl)-5-(2-oxo-4,4,5,5-tetramethyl-1,3,2-dioxaphospholan-2-yl)-1,4-dihydropyridine-3-carboxylate], in the test on guinea pig heart, the activation at 0.001 mg came out at 35% and the activation at 0.0001 mg stood at 13%.

For `CCCOCCOC(=O)C1=C(C)NC(C)=C(P2(=O)OC(C)(C)C(C)(C)O2)C1c1cccc([N+](=O)[O-])c1` (centres unmarked) [Example 49, 2-n-Propoxyethyl 2,6-dimethyl-4-(3-nitrophenyl)-5-(2-oxo-4,4,5,5-tetramethyl-1,3,2-dioxaphospholan-2-yl)-1,4-dihydropyridine-3-carboxylate], in the test on guinea pig heart, the activation at 0.001 mg came to 34% and the activation at 0.0001 mg was found to be 14%.

For the compound `COC(=O)C1=C(C)NC(C)=C(P2(=O)OCCCO2)C1c1ccccc1C(F)(F)F` (centres unmarked) [Example 50, Methyl 2,6-dimethyl-5-(2-oxo-1,3,2-dioxaphosphorinan-2-yl)-4-(2-trifluoromethylphenyl)-1,4-dihydropyridine-3-carboxylate], in the test with guinea pig heart, the activation at 0.001 mg was determined as 46% and the activation at 0.0001 mg came out at 15%. In addition, in test [1], the inhibition in vivo at 1 mg/kg is 42.3%, the inhibition in vivo at 3 mg/kg was found to be 44.3% and the inhibition in vivo at 10 mg/kg worked out at 47.2%.

`COC(=O)C1=C(C)NC(C)=C(P2(=O)OCCCO2)C1c1cccc(Cl)c1Cl` (centres unmarked) [Example 56, Methyl 4-(2,3-dichlorophenyl)-2,6-dimethyl-5-(2-oxo-1,3,2-dioxaphosphorinan-2-yl)-1,4-dihydropyridine-3-carboxylate]: in the test on guinea pig heart, the activation at 0.001 mg amounted to 75% and the activation at 0.0001 mg was found to be 55%.

Regarding `CCOC(=O)C1=C(C)NC(C)=C(P2(=O)OCCCO2)C1c1cccc(Cl)c1Cl` (centres unmarked) [Example 57, Ethyl 4-(2,3-dichlorophenyl)-2,6-dimethyl-5-(2-oxo-1,3,2-dioxaphosphorinan-2-yl)-1,4-dihydropyridine-3-carboxylate], in the test on guinea pig heart, the activation at 0.001 mg stood at 17% and the activation at 0.0001 mg amounted to 11%.
